Legend:
MCF7 = experiment: Cytotoxic effect on human MCF-7 breast cancer cell line as percentage growth at 10e-4 M; format: functional
NCI-H460 = experiment: Cytotoxic effect on human NCI-H460 lung cancer cell line as percentage growth after inoculation at 10e-4 M; format: functional
SF-268 = experiment: Cytotoxic effect on human SF-268 glioma cancer cell line as percentage growth after inoculation at 10e-4 M; format: functional
[1] = target: Cyclin-dependent kinase 1/cyclin B (Homo sapiens, UniProt P06493); experiment: Inhibition of Cyclin-dependent kinase 1-cyclin B; format: protein-complex assay
[2] = system: Panel CNS (Carcinoma cell lines); experiment: Inhibition of proliferation in NCI human CNS tumor cell lines; format: functional
[3] = system: Panel CNS (Carcinoma cell lines); experiment: Cytotoxic effect on human CNS tumor cell lines; format: functional
[4] = system: Panel CNS (Carcinoma cell lines); experiment: Cytostatic effect on human CNS tumor cell lines; format: functional
[5] = system: Panel colon (Carcinoma cell lines); experiment: Cytostatic effect on human colon tumor cell lines; format: functional
[6] = system: Panel leukemia (Carcinoma cell lines); experiment: Inhibition of proliferation in NCI human leukemia tumor cell lines; format: functional
NSCLC [7] = experiment: Cytostatic effect on human non-small cell lung carcinoma tumor cell lines; format: functional
NSCLC [8] = experiment: Inhibition of proliferation in NCI human non-small cell lung tumor cell lines; format: functional
[9] = system: Panel prostate (Carcinoma cell lines); experiment: Cytotoxic effect on human prostate tumor cell lines; format: functional
[10] = system: Panel breast (Carcinoma cell lines); experiment: Inhibition of proliferation in NCI human breast tumor cell lines; format: functional
[11] = system: Panel breast (Carcinoma cell lines); experiment: Cytostatic effect on human breast tumor cell lines; format: functional
[12] = system: Panel leukemia (Carcinoma cell lines); experiment: Cytotoxic effect on human leukemia tumor cell lines; format: functional
[13] = system: Panel leukemia (Carcinoma cell lines); experiment: Cytostatic effect on human leukemia tumor cell lines; format: functional
[14] = system: Panel colon (Carcinoma cell lines); experiment: Inhibition of proliferation in NCI human colon tumor cell lines; format: functional
[15] = system: Panel colon (Carcinoma cell lines); experiment: Cytotoxic effect on human colon tumor cell lines; format: functional
[16] = system: Panel ovarian (Carcinoma cell lines); experiment: Inhibition of proliferation in NCI human ovarian tumor cell lines; format: functional
[17] = system: Panel ovarian (Carcinoma cell lines); experiment: Cytotoxic effect on human ovarian tumor cell lines; format: functional
[18] = system: Panel ovarian (Carcinoma cell lines); experiment: Cytostatic effect on human ovarian tumor cell lines; format: functional
[19] = system: Panel melanoma (Carcinoma cell lines); experiment: Inhibition of proliferation in NCI human melanoma tumor cell lines; format: functional
[20] = system: Panel melanoma (Carcinoma cell lines); experiment: Cytotoxic effect on human melanoma tumor cell lines; format: functional
[21] = system: Panel melanoma (Carcinoma cell lines); experiment: Cytostatic effect on human melanoma tumor cell lines; format: functional
[22] = system: Panel prostate (Carcinoma cell lines); experiment: Inhibition of proliferation in NCI human prostate tumor cell lines; format: functional
[23] = system: Panel prostate (Carcinoma cell lines); experiment: Cytostatic effect on human prostate tumor cell lines; format: functional
[24] = Cytostatic effect on 60 human tumor cell line panel, MG-MID represents mean value; format: functional
[25] = Inhibition of proliferation in NCI 60 human tumor cell line panel, MG-MID represents mean value; format: functional
[26] = Cytotoxic effect on 60 human tumor cell line panel, MG-MID represents mean value; format: functional
[27] = system: Panel renal (Carcinoma cell lines); experiment: Inhibition of proliferation in NCI human renal tumor cell lines; format: functional
[28] = system: Panel renal (Carcinoma cell lines); experiment: Cytotoxic effect on human renal tumor cell lines; format: functional
[29] = system: Panel renal (Carcinoma cell lines); experiment: Cytostatic effect on human renal tumor cell lines; format: functional
[30] = system: Panel breast (Carcinoma cell lines); experiment: Cytotoxic effect on human breast tumor cell lines; format: functional

Row | SMILES | Growth (MCF7) | Growth (NCI-H460) | Growth (SF-268) | GI50 [2] | LC50 [3] | logTGI [4] | logTGI [5] | GI50 [6] | logTGI (NSCLC [7]) | GI50 (NSCLC [8]) | LC50 [9] | GI50 [10] | logTGI [11] | LC50 [12] | logTGI [13] | GI50 [14] | LC50 [15] | GI50 [16] | LC50 [17] | GI50 [19] | other results
1 | COc1cc2c(cc1C)NC(=O)/C2=C/c1c(Cl)n(-c2ccccc2)c2ccccc12 | 8% | 5% | 51% |  |  |  |  |  |  |  |  |  |  |  |  |  |  |  |  |  | 
2 | COc1cc2c(cc1C)NC(=O)/C2=C/c1c(Cl)[nH]c2ccccc12 | -35% | -35% | -48% |  |  |  |  |  |  |  |  |  |  |  |  |  |  |  |  |  | IC50 [1]: 20 µM
3 | COc1cc2c(/C=C3/C(=O)Nc4ccccc43)c(Cl)[nH]c2cc1C | -54% | -39% | -30% | 0.0794 µM | -4.4 | -5.6 log M | -5.1 log M | 0.0631 µM | -4.7 log M | 0.126 µM | -4.4 | 0.1 µM | -5.3 log M | -4.1 | -4.7 log M | 0.0794 µM | -4.6 | 0.0794 µM | -4.4 | 0.126 µM | logTGI [18]: -5.2 log M; LC50 [20]: -4.6; logTGI [21]: -5 log M; GI50 [22]: 0.126 µM; logTGI [23]: -4.8 log M; logTGI [24]: -5 log M; GI50 [25]: 0.1 µM; LC50 [26]: -4.3; GI50 [27]: 0.2 µM; LC50 [28]: -4.3; logTGI [29]: -4.7 log M
4 | COc1cc2c(cc1C)NC(=O)/C2=C/c1c(Cl)[nH]c2cc(C)c(OC)cc12 | -51% | -63% | -67% | 0.631 µM | -4.6 | -5.3 log M | -4.7 log M | 0.501 µM | -4.8 log M | 3.16 µM | -4.4 | 2.51 µM | -4.7 log M | -4.2 | -4.8 log M | 3.98 µM | -4.2 | 2 µM | -4.4 | 3.16 µM | LC50 [30]: -4.1; TGI [18]: -4.9 log10 M; LC50 [20]: -4.3; TGI [21]: -4.8 log10 M; GI50 [22]: 1.26 µM; logTGI [23]: -4.9 log M; logTGI [24]: -4.8 log M; GI50 [25]: 2 µM; LC50 [26]: -4.3; GI50 [27]: 2.51 µM; LC50 [28]: -4.3; logTGI [29]: -4.8 log M
5 | COc1cc2c(cc1C)NC(=O)/C2=C/c1c(Cl)n(C)c2ccccc12 | 3% | -50% | -14% |  |  |  |  |  |  |  |  |  |  |  |  |  |  |  |  |  | 
6 | COc1ccc2c(c1)/C(=C\c1c(Cl)n(-c3ccccc3)c3ccccc13)C(=O)N2 | -6% | -28% | 12% |  |  |  |  |  |  |  |  |  |  |  |  |  |  |  |  |  | 
7 | COc1ccc2[nH]c(Cl)c(/C=C3/C(=O)Nc4cc(C)c(OC)cc43)c2c1 | -23% | -23% | -54% |  |  |  |  |  |  |  |  |  |  |  |  |  |  |  |  |  | IC50 [1]: 30 µM
8 | O=C1/C(=C/c2c(Cl)[nH]c3ccccc23)c2ccccc2N1c1ccccc1 | -3% | -1% | 6% |  |  |  |  |  |  |  |  |  |  |  |  |  |  |  |  |  | 
9 | COc1cc2c(/C=C3/C(=O)N(c4ccccc4)c4ccccc43)c(Cl)[nH]c2cc1C | 1% | -10% | 1% | 3.16 µM | -4.2 | -4.7 log M | -4.7 log M | 2.51 µM | -4.5 log M | 3.16 µM | -4 | 2.51 µM | -5 log M | -4 | -4.4 log M | 2.51 µM | -4.2 | 2.51 µM | -4.3 | 3.16 µM | logTGI [18]: -4.8 log M; LC50 [20]: -4.3; logTGI [21]: -4.9 log M; GI50 [22]: 3.16 µM; logTGI [23]: -4.9 log M; logTGI [24]: -4.7 log M; GI50 [25]: 3.16 µM; LC50 [26]: -4.1; GI50 [27]: 3.98 µM; LC50 [28]: -4.1; logTGI [29]: -4.4 log M
10 | O=C1Nc2ccccc2/C1=C\c1c(Cl)[nH]c2ccc(O)cc12 | -69% | -82% | -34% |  |  |  |  |  |  |  |  |  |  |  |  |  |  |  |  |  | IC50 [1]: 30 µM
11 | COc1ccc2[nH]c(Cl)c(/C=C3/C(=O)N(c4ccccc4)c4ccccc43)c2c1 | 3% | 2% | 15% |  |  |  |  |  |  |  |  |  |  |  |  |  |  |  |  |  | 
12 | COc1cc2c(/C=C3/C(=O)N(C)c4ccccc43)c(Cl)[nH]c2cc1C | 4% | -18% | -1% | 0.2 µM | -4.5 | -5.6 log M | -5 log M | 0.251 µM | -5 log M | 0.794 µM | -4 | 0.158 µM | -5.1 log M | -4 | -4.6 log M | 0.316 µM | -4.2 | 0.316 µM | -4.3 | 0.631 µM | logTGI [18]: -5.2 log M; LC50 [20]: -4; logTGI [21]: -4.6 log M; GI50 [22]: 0.398 µM; logTGI [23]: -4.7 log M; logTGI [24]: -4.9 log M; GI50 [25]: 0.398 µM; LC50 [26]: -4.1; GI50 [27]: 2 µM; LC50 [28]: -4; logTGI [29]: -4.2 log M
13 | COc1ccc2c(c1)/C(=C\c1c(Cl)[nH]c3cc(C)c(OC)cc13)C(=O)N2 | -54% | -48% | -44% | 0.794 µM | -4.7 | -5.2 log M | -5 log M | 0.501 µM | -4.8 log M | 2.51 µM | -4.4 | 1 µM | -5 log M | -4.2 | -5.1 log M | 1 µM | -4.4 | 0.794 µM | -4.3 | 1 µM | logTGI [18]: -5.3 log M; LC50 [20]: -4.5; logTGI [21]: -5 log M; GI50 [22]: 1.26 µM; logTGI [23]: -5.1 log M; logTGI [24]: -5 log M; GI50 [25]: 1 µM; LC50 [26]: -4.3; GI50 [27]: 2 µM; LC50 [28]: -4.3; logTGI [29]: -4.8 log M
14 | O=C1Nc2ccccc2/C1=C\c1c(Cl)n(-c2ccccc2)c2ccccc12 | 8% | -16% | -17% |  |  |  |  |  |  |  |  |  |  |  |  |  |  |  |  |  | 
15 | CC[C@]1(O)C[C@H]2CN(CCc3c([nH]c4ccccc34)[C@@](C(=O)OC)(c3cc4c(cc3OC)N(C=O)[C@H]3[C@@](O)(C(=O)OC)[C@H](OC(C)=O)[C@]5(CC)C=CCN6CC[C@]43[C@@H]65)C2)C1.O=S(=O)(O)O [VINCRISTINE SULFATE] |  |  |  | 0.126 µM | -3.7 | -5.2 | -5.4 | 0.1 µM | -4.8 log M | 0.251 µM | -3.5 | 0.316 µM | -5.1 | -3.2 | -4.8 | 0.1 µM | -4.1 | 0.316 µM | -3.5 | 0.158 µM | LC50 [30]: -3.5; logTGI [18]: -4.7; LC50 [20]: -3.6; logTGI [21]: -5.1 log M; GI50 [22]: 0.126 µM; logTGI [23]: -5.2; logTGI [24]: -5; GI50 [25]: 0.2 µM; LC50 [26]: -3.6; GI50 [27]: 0.316 µM; LC50 [28]: -3.6; logTGI [29]: -4.7

— ChEMBL document CHEMBL1135474, “Synthesis and antitumor activity of 1,5,6-substituted E-3-(2-chloro-3-indolylmethylene)-1,3-dihydroindol-2-ones” (J Med Chem, 2002)
